Legend:
[1] = system: MDA-MB-175-VII (Breast Carcinoma); assay: combination Emax (second highest fraction inhibited in the dose matrix, 72 h); higher = more inhibition; extreme values may be limits of the assay
Outline: (§1)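 Bliss excess equals the observed combination effect minus the expected value EA + EB − EA·EB, where EA and EB are the effects of each agent alone. Combination Emax is the second-highest inhibition within the matrix. Inhibition was scaled from CellTiter-Glo 2.0 luminescence, with 0 set by vehicle wells and 1 by blank wells, after 72 hours of two-drug dosing of cells plated in 1536-well plates.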

[2] = system: CAL-85-1 (Breast Carcinoma); assay: as above
Outline: as §1

[3] = system: NCI-H1435 (Non-Small Cell Lung Carcinoma); assay: as above
Outline: as §1

[4] = system: RPMI-8402 (T-Lymphoblastic Leukemia); assay: as above
Outline: as §1

[5] = system: SBC-3 (Small Cell Lung Carcinoma); assay: as above
Outline: as §1

NCI-H2452 (Mesothelioma) [6] = assay: as above
Outline: as §1

[7] = system: OVKATE (Ovarian Carcinoma); assay: as above
Outline: as §1

[8] = system: SW1463 (Colorectal Carcinoma); assay: as above
Outline: as §1

[9] = system: L-363 (Plasma Cell Myeloma); assay: as above
Outline: as §1

SK-MEL-24 (Melanoma) [10] = assay: as above
Outline: as §1

[11] = system: NCI-H2023 (Non-Small Cell Lung Carcinoma); assay: as above
Outline: as §1

[12] = system: MRK-nu-1 (Breast Carcinoma); assay: as above
Outline: as §1

[13] = system: BC-1 (B-Cell Non-Hodgkin's Lymphoma); assay: as above
Outline: as §1

GCIY (Gastric Carcinoma) [14] = assay: as above
Outline: as §1

[15] = system: COR-L105 (Lung Adenocarcinoma); assay: as above
Outline: as §1

[16] = system: NCI-H2009 (Lung Adenocarcinoma); assay: as above
Outline: as §1

[17] = system: NTERA-2-cl-D1 (Other Solid Carcinomas); assay: as above
Outline: as §1

[18] = system: KNS-62 (Squamous Cell Lung Carcinoma); assay: as above
Outline: as §1

[19] = system: NCI-H835 (Other Solid Carcinomas); assay: as above
Outline: as §1

[20] = system: NCI-H1648 (Lung Adenocarcinoma); assay: as above
Outline: as §1

C32 (Melanoma) [21] = assay: as above
Outline: as §1

MG-63 (Osteosarcoma) [22] = assay: as above
Outline: as §1

A375 (Melanoma) [23] = assay: as above
Outline: as §1

[24] = system: MDA-MB-175-VII (Breast Carcinoma); assay: Bliss excess, mean over the matrix (fraction); higher = more synergy
Outline: as §1

[25] = system: CAL-85-1 (Breast Carcinoma); assay: as above
Outline: as §1

[26] = system: NCI-H1435 (Non-Small Cell Lung Carcinoma); assay: as above
Outline: as §1

[27] = system: RPMI-8402 (T-Lymphoblastic Leukemia); assay: as above
Outline: as §1

[28] = system: SBC-3 (Small Cell Lung Carcinoma); assay: as above
Outline: as §1

NCI-H2452 (Mesothelioma) [29] = assay: as above
Outline: as §1

[30] = system: OVKATE (Ovarian Carcinoma); assay: as above
Outline: as §1

[31] = system: SW1463 (Colorectal Carcinoma); assay: as above
Outline: as §1

[32] = system: L-363 (Plasma Cell Myeloma); assay: as above
Outline: as §1

SK-MEL-24 (Melanoma) [33] = assay: as above
Outline: as §1

[34] = system: NCI-H2023 (Non-Small Cell Lung Carcinoma); assay: as above
Outline: as §1

[35] = system: MRK-nu-1 (Breast Carcinoma); assay: as above
Outline: as §1

[36] = system: BC-1 (B-Cell Non-Hodgkin's Lymphoma); assay: as above
Outline: as §1

GCIY (Gastric Carcinoma) [37] = assay: as above
Outline: as §1

[38] = system: COR-L105 (Lung Adenocarcinoma); assay: as above
Outline: as §1

[39] = system: NCI-H2009 (Lung Adenocarcinoma); assay: as above
Outline: as §1

[40] = system: NTERA-2-cl-D1 (Other Solid Carcinomas); assay: as above
Outline: as §1

[41] = system: KNS-62 (Squamous Cell Lung Carcinoma); assay: as above
Outline: as §1

[42] = system: NCI-H835 (Other Solid Carcinomas); assay: as above
Outline: as §1

[43] = system: NCI-H1648 (Lung Adenocarcinoma); assay: as above
Outline: as §1

C32 (Melanoma) [44] = assay: as above
Outline: as §1

MG-63 (Osteosarcoma) [45] = assay: as above
Outline: as §1

A375 (Melanoma) [46] = assay: as above
Outline: as §1

Question: With `O=C(c1cc(Cc2n[nH]c(=O)c3ccccc23)ccc1F)N1CCN(C(=O)C2CC2)CC1` [Olaparib] + CC1(C)CCC(CN2CCN(c3ccc(C(=O)NS(=O)(=O)c4ccc(NCC5CCOCC5)c([N+](=O)[O-])c4)c(Oc4cnc5[nH]ccc5c4)c3)CC2)=C(c2ccc(Cl)cc2)C1 [Venetoclax] (first compound max 10 µM, 7x7, partner max 1 µM) as the compound, how does the “combination Emax” value [1] read?
Answer: 0.297

Question: What about the “combination Emax” value [2] of the same compound?
Answer: 0.239

Question: What about the “combination Emax” value [3] of the same compound?
Answer: 0.117

Question: What about the “combination Emax” value [4] of the same compound?
Answer: 0.53

Question: What about the “combination Emax” value [5] of the same compound?
Answer: 0.665

Question: And the “combination Emax” value (NCI-H2452 (Mesothelioma) [6])?
Answer: 0.143

Question: And the “combination Emax” value [7]?
Answer: 0.122

Question: What about the “combination Emax” value [8] of the same compound?
Answer: 0.229

Question: What about the “combination Emax” value [9] of the same compound?
Answer: 0.305

Question: What about the “combination Emax” value (SK-MEL-24 (Melanoma) [10]) of the same compound?
Answer: 0.0984

Question: And the “combination Emax” value [11]?
Answer: 0.134

Question: What about the “combination Emax” value [12] of the same compound?
Answer: 0.293

Question: What about the “combination Emax” value [13] of the same compound?
Answer: 0.252

Question: What about the “combination Emax” value (GCIY (Gastric Carcinoma) [14]) of the same compound?
Answer: 0.119

Question: And the “combination Emax” value [15]?
Answer: 0.128

Question: And the “combination Emax” value [16]?
Answer: 0.174

Question: What about the “combination Emax” value [17] of the same compound?
Answer: 0.383

Question: And the “combination Emax” value [18]?
Answer: 0.147

Question: And the “combination Emax” value [19]?
Answer: 0.169

Question: What about the “combination Emax” value [20] of the same compound?
Answer: 0.118

Question: What about the “combination Emax” value (C32 (Melanoma) [21]) of the same compound?
Answer: 0.145

Question: What about the “combination Emax” value (MG-63 (Osteosarcoma) [22]) of the same compound?
Answer: 0.299

Question: And the “combination Emax” value (A375 (Melanoma) [23])?
Answer: 0.176

Question: And the Bliss excess [24]?
Answer: -0.0483

Question: And the Bliss excess [25]?
Answer: -0.026

Question: And the Bliss excess [26]?
Answer: -0.01

Question: And the Bliss excess [27]?
Answer: -0.0163

Question: What about the Bliss excess [28] of the same compound?
Answer: -0.0063

Question: What about the Bliss excess (NCI-H2452 (Mesothelioma) [29]) of the same compound?
Answer: -0.0646

Question: What about the Bliss excess [30] of the same compound?
Answer: -0.0355

Question: And the Bliss excess [31]?
Answer: -0.0111

Question: And the Bliss excess [32]?
Answer: 0.0557

Question: What about the Bliss excess (SK-MEL-24 (Melanoma) [33]) of the same compound?
Answer: -0.0534

Question: What about the Bliss excess [34] of the same compound?
Answer: -0.0292

Question: What about the Bliss excess [35] of the same compound?
Answer: 0.0277

Question: And the Bliss excess [36]?
Answer: 0.0012

Question: And the Bliss excess (GCIY (Gastric Carcinoma) [37])?
Answer: -0.0547

Question: And the Bliss excess [38]?
Answer: -0.0328

Question: What about the Bliss excess [39] of the same compound?
Answer: -0.0323

Question: What about the Bliss excess [40] of the same compound?
Answer: -0.0419

Question: And the Bliss excess [41]?
Answer: -0.0346

Question: What about the Bliss excess [42] of the same compound?
Answer: -0.0096

Question: And the Bliss excess [43]?
Answer: -0.0403

Question: And the Bliss excess (C32 (Melanoma) [44])?
Answer: -0.0521

Question: And the Bliss excess (MG-63 (Osteosarcoma) [45])?
Answer: 0.0113

Question: What about the Bliss excess (A375 (Melanoma) [46]) of the same compound?
Answer: -0.0248

Question: With `C=CCn1c(=O)c2cnc(Nc3ccc(N4CCN(C)CC4)cc3)nc2n1-c1cccc(C(C)(C)O)n1` [AZD1775] + CCc1c2c(nc3ccc(O)cc13)-c1cc3c(c(=O)n1C2)COC(=O)[C@]3(O)CC [SN-38] (first compound max 1 µM, partner max 0.3 µM) as the compound, how does the “combination Emax” value [1] read?
Answer: 0.659

Question: And the “combination Emax” value [2]?
Answer: 0.799

Question: What about the “combination Emax” value [3] of the same compound?
Answer: 0.547

Question: What about the “combination Emax” value [4] of the same compound?
Answer: 1

Question: And the “combination Emax” value [5]?
Answer: 0.946

Question: What about the “combination Emax” value (NCI-H2452 (Mesothelioma) [6]) of the same compound?
Answer: 0.675

Question: And the “combination Emax” value [7]?
Answer: 0.336

Question: And the “combination Emax” value [8]?
Answer: 0.587

Question: And the “combination Emax” value [9]?
Answer: 0.903

Question: And the “combination Emax” value (SK-MEL-24 (Melanoma) [10])?
Answer: 0.806

Question: And the “combination Emax” value [11]?
Answer: 0.775

Question: What about the “combination Emax” value [12] of the same compound?
Answer: 0.81

Question: And the “combination Emax” value [13]?
Answer: 1

Question: What about the “combination Emax” value (GCIY (Gastric Carcinoma) [14]) of the same compound?
Answer: 0.756

Question: What about the “combination Emax” value [15] of the same compound?
Answer: 0.478

Question: What about the “combination Emax” value [16] of the same compound?
Answer: 0.936

Question: What about the “combination Emax” value [17] of the same compound?
Answer: 0.682

Question: And the “combination Emax” value [18]?
Answer: 0.836

Question: What about the “combination Emax” value [19] of the same compound?
Answer: 0.668

Question: What about the “combination Emax” value [20] of the same compound?
Answer: 0.842

Question: And the “combination Emax” value (C32 (Melanoma) [21])?
Answer: 0.69

Question: And the “combination Emax” value (MG-63 (Osteosarcoma) [22])?
Answer: 0.968

Question: And the “combination Emax” value (A375 (Melanoma) [23])?
Answer: 0.925

Question: And the Bliss excess [24]?
Answer: -0.0068

Question: What about the Bliss excess [25] of the same compound?
Answer: -0.0337

Question: And the Bliss excess [26]?
Answer: 0.0158

Question: What about the Bliss excess [27] of the same compound?
Answer: 0.0012

Question: And the Bliss excess [28]?
Answer: -0.0297

Question: And the Bliss excess (NCI-H2452 (Mesothelioma) [29])?
Answer: -0.0145

Question: And the Bliss excess [30]?
Answer: -0.079

Question: And the Bliss excess [31]?
Answer: -0.0287

Question: And the Bliss excess [32]?
Answer: 0.0273

Question: What about the Bliss excess (SK-MEL-24 (Melanoma) [33]) of the same compound?
Answer: -0.103

Question: What about the Bliss excess [34] of the same compound?
Answer: -0.0478

Question: And the Bliss excess [35]?
Answer: 0.0275

Question: What about the Bliss excess [36] of the same compound?
Answer: -0.0252

Question: And the Bliss excess (GCIY (Gastric Carcinoma) [37])?
Answer: -0.0431

Question: And the Bliss excess [38]?
Answer: -0.0262

Question: What about the Bliss excess [39] of the same compound?
Answer: 0.0769

Question: What about the Bliss excess [40] of the same compound?
Answer: 0.0011

Question: What about the Bliss excess [41] of the same compound?
Answer: -0.0374

Question: What about the Bliss excess [42] of the same compound?
Answer: -0.0442

Question: And the Bliss excess [43]?
Answer: -0.0217

Question: And the Bliss excess (C32 (Melanoma) [44])?
Answer: -0.0375

Question: What about the Bliss excess (MG-63 (Osteosarcoma) [45]) of the same compound?
Answer: -0.0239

Question: And the Bliss excess (A375 (Melanoma) [46])?
Answer: -0.0409

Source: the supplement of paper PMC11061612
